System: micellar dispersion consisting of 5 mM taurocholate, 0.6 mM oleic acid and 0.1 mM radiolabeled cholesterol
Assay: In vitro precipitation of cholesterol-carrying bile salt micelles (radioactivity in supernatant after centrifugation; turbidity at 500 nm)
Conditions: for precipitation: at the amount calculated for charge equivalence
Procedure: In order to determine the efficiency of specific cations, an in vitro test was used in which micelles comprising radio labeled cholesterol (cholesterol and micelles were produced according to known methods, see below) were generated. To a predetermined amount of such micelles, the respective precipitant was added in portions, and the precipitation formed upon addition of specific amounts of precipitant measured by two methods, namely by light scattering and by determination of the radioactivity in the supernatant after centrifugation.
A micellar dispersion consisting of 5 mM taurocholate, 0.6 mM oleic acid and 0.1 mM radiolabeled cholesterol was prepared as described before (Schulthess et al., J. Lipid Res. 37, 2405-19 (1996)) using Mg- and Ca-free phosphate-buffered saline (PBS) from Life Technologies, Basel, Switzerland. This stock solution was diluted by adding various amounts of precipitant in PBS, and PBS was added to a final volume of 1 ml. The mixture was shortly vortexed and incubated at room temperature for about 5 min before measuring its optical density (turbidity) at 500 nm. Precipitation (in %) was determined as follows: an aliquot of 200 µl of the incubation mixture was centrifuged for 3 min. at 100'000 g and the radioactivity of 100 µl supernatant was determined in a liquid scintillation counter. The radioactivity of 100 µl of the original mixture was also determined without centrifugation. The precipitation was determined as precipitation (%) = 100 [1-([…])] [formula] • A = radioactivity in supernatant without centrifugation • B = radioactivity in supernatant after centrifugation As a control: the precipitation (%) is determined in the absence of precipitant and a value of precipitation (%) = 2 ± 1 is obtained.

[1] = charge ratio (taurocholate/precipitant) 0.5, PBS
[2] = charge ratio (taurocholate/precipitant) 1, PBS
[3] = charge ratio (taurocholate/precipitant) 3, PBS
[4] = charge ratio (taurocholate/precipitant) 2, PBS
[5] = charge ratio (taurocholate/precipitant) 0.2, in PBS
[6] = charge ratio (taurocholate/precipitant) 1, in 50 mM Tris-HCl, pH=7.4
[7] = charge ratio (taurocholate/precipitant) 2, in 50 mM Tris-HCl, pH=7.4
[8] = charge ratio (taurocholate/precipitant) 0.3, in 10 mM Arg and 10 mM Lys
[9] = charge ratio (taurocholate/precipitant) 0.3 ± 0.1, PBS
[10] = charge ratio (taurocholate/precipitant) 0.6, in 10 mM Arg and 10 mM Lys
[11] = charge ratio (taurocholate/precipitant) 1.2 ± 0.5, PBS
[12] = charge ratio (taurocholate/precipitant) 0.25, PBS
[13] = charge ratio (taurocholate/precipitant) 5, in PBS
[14] = charge ratio (taurocholate/precipitant) 0.1, PBS
[15] = charge ratio (taurocholate/precipitant) 0.165, PBS
[16] = charge ratio (taurocholate/precipitant) 1.4 ± 0.6, PBS

Compound: NCCCCCCCCCCN [1,10 Diaminodecane]
- Precipitation (%) [1]: 0%
- Turbidity (OD 500 nm) [1]: 0 OD 500 nm
- Precipitation (%) [2]: 0%
- Turbidity (OD 500 nm) [2]: 0 OD 500 nm
- Precipitation (%) [3]: 0%
- Turbidity (OD 500 nm) [3]: 0 OD 500 nm

Compound: NCCCCCCCCCCCCN [1,12 Diaminododecane]
- Precipitation (%) (charge ratio (taurocholate/precipitant) 0.125, PBS): 100%
- Turbidity (OD 500 nm) (charge ratio (taurocholate/precipitant) 0.125, PBS, maximal turbidity observed): 0.4 ± 0.05 (max) OD 500 nm
- Precipitation (%) [1]: 65 ± 5%
- Turbidity (OD 500 nm) [1]: 0.02 ± 0.01 OD 500 nm
- Precipitation (%) [2]: 17 ± 4%
- Turbidity (OD 500 nm) [2]: 0.01 ± 0.005 OD 500 nm
- Precipitation (%) [4]: 13 ± 4%
- Turbidity (OD 500 nm) [4]: 0.01 ± 0.005 OD 500 nm

Compound: Ca^2+
- Precipitation (%) (charge ratio (taurocholate/precipitant) 0.2, in 50 mM Tris-HCl, pH=7.4): 0%
- Turbidity (OD 500 nm) (charge ratio (taurocholate/precipitant) 0.2, in 50 mM Tris-HCl, pH=7.4, maximal turbidity observed): 0.23 ± 0.06 (max) OD 500 nm
- Precipitation (%) [5]: 100%
- Turbidity (OD 500 nm) (charge ratio (taurocholate/precipitant) 0.2, in PBS, maximal turbidity observed): 0.25 ± 0.05 (max) OD 500 nm
- Precipitation (%) [6]: 0%
- Turbidity (OD 500 nm) [6]: 0.12 ± 0.03 OD 500 nm
- Precipitation (%) [7]: 0%
- Turbidity (OD 500 nm) [7]: 0.13 ± 0.03 OD 500 nm

Compound: Polylysine [Polylysine Mr = 21600]
- precipitation (Figure 2, equivalence point: poly K = 0.0061 mM): 100%
- Precipitation (%) [8]: 100%
- Turbidity (OD 500 nm) [8]: 1.6 ± 0.2 OD 500 nm
- Precipitation (%) [9]: 100%
- Turbidity (OD 500 nm) [9]: 0.4 ± 0.03 OD 500 nm
- Precipitation (%) [10]: 100%
- Turbidity (OD 500 nm) [10]: 1.3 ± 0.1 OD 500 nm
- Precipitation (%) [11]: 100%
- Turbidity (OD 500 nm) [11]: 0.13 ± 0.05 OD 500 nm

Compound: N=C(N)NCCC[C@H](N)C(=O)O [Arginine]
- Precipitation (%) [12]: 0%
- Turbidity (OD 500 nm) [12]: 0 OD 500 nm
- Precipitation (%) [2]: 0%
- Turbidity (OD 500 nm) [2]: 0 OD 500 nm

Compound: Mg^2+
- Precipitation (%) [5]: 0%
- Turbidity (OD 500 nm) [5]: 0 OD 500 nm
- Precipitation (%) [13]: 0%
- Turbidity (OD 500 nm) [13]: 0 OD 500 nm

Compound: NCCCC[C@H](N)C(=O)O [Lysine]
- Precipitation (%) [12]: 0%
- Turbidity (OD 500 nm) [12]: 0 OD 500 nm
- Precipitation (%) [2]: 0%
- Turbidity (OD 500 nm) [2]: 0 OD 500 nm

Compound: NCCCCCCN [1,6 Hexanediamine]
- Precipitation (%) [14]: 0%
- Turbidity (OD 500 nm) [14]: 0 OD 500 nm
- Precipitation (%) [15]: 0%
- Turbidity (OD 500 nm) [15]: 0 OD 500 nm

Compound: Polylysine [Polylysine Mr = 2300]
- precipitation (Figure 3, equivalence point: poly K = 0.056 mM): 100%
- Precipitation (%) (charge ratio (taurocholate/precipitant) 0.5 ± 0.1, PBS): 100%
- Turbidity (OD 500 nm) (charge ratio (taurocholate/precipitant) 0.5 ± 0.1, PBS, maximal turbidity observed): 0.9 ± 0.1 (max) OD 500 nm
- Precipitation (%) [16]: 100%
- Turbidity (OD 500 nm) [16]: 0.6 ± 0.2 OD 500 nm

Source: patent EP1090634A1, “Agents for reducing cholesterol and lipid uptake” (Hauser, Helmut, priority 1999, dated 2001)
